Test results as given in patent US20260070945A1, “MACROCYCLIC IMMUNOMODULATORS” (Bristol-Myers Squibb Company, priority 2022, published 2026).
*1 amine or outer side, *2 acyl side, *3 side chain or, on linkers, in order; H or OH if unused. Where a SMILES comes first, the peptide text is derived from it. Bridges are numbered along the chain shown (N, C = ends). [ ]: non-standard residue; d: D form. The star is where a group is joined. ξ: configuration not given here. Phe(3-CF3) = N[C@@H](Cc1cccc(C(F)(F)F)c1)C(=O)O; Phe(4-CONH2) = NC(=O)c1ccc(C[C@H](N)C(=O)O)cc1; Phe(4-COOH) = N[C@@H](Cc1ccc(C(=O)O)cc1)C(=O)O; Bip = N[C@@H](Cc1ccc(-c2ccccc2)cc1)C(=O)O; NH(CH2)14COOH = O=C(O)CCCCCCCCCCCCCCN*; Phe(3-Me) = Cc1cccc(C[C@H](N)C(=O)O)c1; γGlu = O=C(O)[C@H](CCC(=O)[*:2])N[*:1]; NH(CH2)12COOH = O=C(O)CCCCCCCCCCCCN*; Val(3-OH) = CC(C)(O)[C@H](N)C(=O)O; aIle = CC[C@@H](C)[C@H](N)C(=O)O; 4Pal = N[C@@H](Cc1ccncc1)C(=O)O; 3Thi = N[C@@H](Cc1ccsc1)C(=O)O; Cha = N[C@@H](CC1CCCCC1)C(=O)O; Cit = NC(=O)NCCC[C@H](N)C(=O)O; Thr(3ξ) = CC(O)[C@H](N)C(=O)O; Carboxymethyl = O=C(O)C*; NMeA = CN[C@@H](C)C(=O)O; Orn = NCCC[C@H](N)C(=O)O; dDap = NC[C@@H](N)C(=O)O; Aun = NCCCCCCCCCCC(=O)O; Dab = NCC[C@H](N)C(=O)O; AEEA = NCCOCCOCC(=O)O

The compounds below were run against T1, PD-1/PD-L1 interaction (PE-labeled human PD-L1-Ig binding to Jurkat cell line over-expressing human PD-1) (Homo sapiens, UniProt Q15116) (assay: Jurkat-PD-1 Cell Binding High-Content Screening Assay (CBA)). Settings: Jurkat-hPD-1 cells, PE-labeled PD-L1-Ig 20 nM final; read-out: Jurkat HPD1 PDL1 IC50.
T1 construct: expressed in transfected cells; host or cells: Jurkat
Outline: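 Jurkat-hPD-1 cells (8×10^3/well) in DMEM with 10% fetal calf serum were preincubated with compound for 2 h at 37 °C. PE-labeled PD-L1-Ig was then added at 20 nM final for 1 h. Cells were fixed in paraformaldehyde with Hoechst 33342, washed and imaged by high-content imaging.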

T1 sequence (Q15116 25-288): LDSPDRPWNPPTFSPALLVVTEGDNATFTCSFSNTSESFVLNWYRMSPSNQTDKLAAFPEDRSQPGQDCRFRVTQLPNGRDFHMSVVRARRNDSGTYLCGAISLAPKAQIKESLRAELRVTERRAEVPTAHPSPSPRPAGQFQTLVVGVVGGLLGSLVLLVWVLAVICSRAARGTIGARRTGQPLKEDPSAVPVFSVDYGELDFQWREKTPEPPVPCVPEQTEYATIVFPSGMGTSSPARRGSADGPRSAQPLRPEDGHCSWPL

IC50 | Compound
23.6 nM | Cc1cccc(C[C@@H]2NC(=O)[C@H](CC(=O)O)NC(=O)[C@H](Cc3ccc(C(=O)O)cc3)NC(=O)[C@H](Cc3ccc(OCC(=O)O)cc3)NC(=O)CSC[C@@H](C(=O)NCCOCCOCC(=O)NCCCCCCCCCCC(=O)O)NC(=O)[C@H](C(C)O)NC(=O)[C@H](C(C)C)NC(=O)[C@H](CC3CCCCC3)NC(=O)[C@H](CCN)NC(=O)[C@@H](CC(C)C)NC(=O)[C@H](C)N(C)C(=O)[C@H](CCC(N)=O)NC(=O)[C@H](Cc3ccc(-c4ccccc4)cc3)NC(=O)[C@H](C(C)C)NC2=O)c1 (stereo partly drawn) [Example 2284] ({CH2CO}-Y(Carboxymethyl)[Phe(4-COOH)]D[Phe(3-Me)]V[Bip]Q[NMeA][dL][Dab][Cha]V[Thr(3ξ)]C[AEEA][Aun]-OH; thioether N-14)
8.6 nM | CC(C)C[C@@H]1NC(=O)[C@H](Cc2c[nH]c3ccccc23)NC(=O)[C@H](CC(=O)O)NC(=O)[C@H](Cc2ccncc2)NC(=O)[C@H](Cc2ccc(OCC(=O)O)cc2)NC(=O)CSC[C@@H](C(=O)NCC(=O)NCCOCCOCC(=O)N[C@@H](CCN)C(=O)NCCCCCCCCCCC(=O)O)NC(=O)[C@H](CCCNC(N)=O)NC(=O)[C@H](C(C)C)NC(=O)[C@H](CC2CCCCC2)NC(=O)[C@H](CCN)NC(=O)[C@@H](CC(C)C)NC(=O)[C@H](C)N(C)C(=O)[C@H](C(C)C)NC(=O)[C@H](Cc2ccc(-c3ccccc3)cc2)NC1=O [Example 2170] ({CH2CO}-Y(Carboxymethyl)[4Pal]DWL[Bip]V[NMeA][dL][Dab][Cha]V[Cit]CG[AEEA][Dab][Aun]-OH; thioether N-14)
31 nM | CC(C)C[C@@H]1NC(=O)[C@H](Cc2c[nH]c3ccccc23)NC(=O)[C@H](CC(=O)O)NC(=O)[C@H](Cc2ccncc2)NC(=O)[C@H](Cc2ccc(OCC(=O)O)cc2)NC(=O)CSC[C@@H](C(=O)N[C@@H](CCCNC(=N)N)C(=O)NCCCCCCCCCCC(=O)O)NC(=O)[C@H](CO)NC(=O)[C@H](C(C)C)NC(=O)[C@H](CC2CCCCC2)NC(=O)[C@H](CCN)NC(=O)[C@@H](CC(C)C)NC(=O)[C@H](C)N(C)C(=O)[C@H](C(C)C)NC(=O)[C@H](Cc2ccc(-c3ccccc3)cc2)NC1=O [Example 1086] ({CH2CO}-Y(Carboxymethyl)[4Pal]DWL[Bip]V[NMeA][dL][Dab][Cha]VSCR[Aun]-OH; thioether N-14)
73.7 nM | CC[C@@H](C)[C@@H]1NC(=O)[C@H](Cc2ccc(-c3ccccc3)cc2)NC(=O)[C@H](C(C)C)NC(=O)[C@H](Cc2c[nH]c3ccccc23)NC(=O)[C@H](CC(=O)O)NC(=O)[C@H](Cc2ccc(C(=O)O)cc2)NC(=O)[C@H](Cc2ccc(OCC(=O)O)cc2)NC(=O)CSC[C@@H](C(=O)N[C@H](CN)C(=O)NCCOCCOCC(=O)N[C@@H](CCC(=O)NCCOCCOCC(=O)N[C@@H](CCC(=O)NCCOCCOCC(=O)N[C@@H](CCCN)C(=O)NCCCCCCCCCCC(=O)O)C(=O)O)C(=O)O)NC(=O)[C@H](CO)NC(=O)[C@H](C(C)C)NC(=O)[C@H](CC2CCCCC2)NC(=O)[C@H](CC(N)=O)NC(=O)[C@@H](CC(C)C)NC(=O)[C@H](C)N(C)C1=O [Example 2018] ({CH2CO}-Y(Carboxymethyl)[Phe(4-COOH)]DWV[Bip][aIle][NMeA][dL]N[Cha]VSC[dDap][AEEA][γGlu][AEEA][γGlu][AEEA][Orn][Aun]-OH; thioether N-14)
67.3 nM | CC(C)C[C@@H]1NC(=O)[C@H](Cc2c[nH]c3ccccc23)NC(=O)[C@H](CC(=O)O)NC(=O)[C@H](Cc2ccc(OCC(=O)O)cc2)NC(=O)[C@H](Cc2ccccc2)NC(=O)CSC[C@@H](C(=O)N[C@@H](CCN)C(=O)NCCCCCCCCCCC(=O)O)NC(=O)[C@H]([C@@H](C)O)NC(=O)[C@H](C(C)C)NC(=O)[C@H](CC(C)C)NC(=O)[C@H](CC(N)=O)NC(=O)[C@@H](CC(C)C)NC(=O)[C@H](C)N(C)C(=O)[C@H](C(C)C)NC(=O)[C@H](Cc2ccc(-c3ccccc3)cc2)NC1=O [Example 1333] ({CH2CO}-FY(Carboxymethyl)DWL[Bip]V[NMeA][dL]NLVTC[Dab][Aun]-OH; thioether N-14)
19.7 nM | Cc1cccc(C[C@@H]2NC(=O)[C@H](CC(=O)O)NC(=O)[C@H](Cc3ccc(OCC(=O)O)cc3)NC(=O)[C@H](CC(N)=O)NC(=O)CSC[C@@H](C(=O)N[C@@H](CCN)C(=O)NCCCCCCCCCCC(=O)O)NC(=O)[C@H]([C@@H](C)O)NC(=O)[C@H](C(C)C)NC(=O)[C@H](CC3CCCCC3)NC(=O)[C@H](CCN)NC(=O)[C@@H](CC(C)C)NC(=O)[C@H](C)N(C)C(=O)[C@H](Cc3ccc(O)cc3)NC(=O)[C@H](Cc3ccc(-c4ccccc4)cc3)NC(=O)[C@H](C(C)C)NC2=O)c1 [Example 1322] ({CH2CO}-NY(Carboxymethyl)D[Phe(3-Me)]V[Bip]Y[NMeA][dL][Dab][Cha]VTC[Dab][Aun]-OH; thioether N-14)
104 nM | Cc1cccc(C[C@@H]2NC(=O)[C@H](CC(=O)O)NC(=O)[C@H](Cc3ccc(OCC(=O)O)cc3)NC(=O)[C@H](Cc3ccc(OCC(=O)O)cc3)NC(=O)CSC[C@@H](C(=O)NCCOCCOCC(=O)NCCCCCCCCCCC(=O)O)NC(=O)[C@H](CCCNC(=N)N)NC(=O)[C@H](C(C)C)NC(=O)[C@H](CC3CCCCC3)NC(=O)[C@H](CCN)NC(=O)[C@@H](CC(C)C)NC(=O)[C@H](C)N(C)C(=O)[C@H](Cc3ccc(O)cc3)NC(=O)[C@H](Cc3ccc(-c4ccccc4)cc3)NC(=O)[C@H](CC(C)C)NC2=O)c1 [Example 2280] ({CH2CO}-Y(Carboxymethyl)Y(Carboxymethyl)D[Phe(3-Me)]L[Bip]Y[NMeA][dL][Dab][Cha]VRC[AEEA][Aun]-OH; thioether N-14)

Same assay, conditions: PE-labeled PD-L1-Ig 20 nM final, Jurkat-hPD-1 cells; read-out: Jurkat HPD1 PDL1 IC50

IC50 | Compound
14.9 nM | CC(=O)NCCCC[C@@H]1NC(=O)[C@H](C(C)(C)O)NC(=O)[C@H](CC2CCCCC2)NC(=O)[C@H](CCN)NC(=O)[C@@H](CC(C)C)NC(=O)[C@H](C)N(C)C(=O)[C@H](C(C)C)NC(=O)[C@H](Cc2ccc(-c3ccccc3)cc2)NC(=O)[C@H](CC(C)C)NC(=O)[C@H](Cc2c[nH]c3ccccc23)NC(=O)[C@H](CC(=O)O)NC(=O)[C@H](Cc2ccc(C(=O)O)cc2)NC(=O)[C@H](Cc2ccc(OCC(=O)O)cc2)NC(=O)CSC[C@@H](C(=O)NCCOCCOCC(=O)NCCCCCCCCCCC(=O)O)NC1=O [Example 2460] ({CH2CO}-Y(Carboxymethyl)[Phe(4-COOH)]DWL[Bip]V[NMeA][dL][Dab][Cha][Val(3-OH)]K(Ac)C[AEEA][Aun]-OH; thioether N-14)
350 nM | Cc1cccc(C[C@@H]2NC(=O)[C@H](CC(=O)O)NC(=O)[C@H](Cc3ccc(C(=O)O)cc3)NC(=O)[C@H](C(C)O)NC(=O)CSC[C@@H](C(=O)N[C@@H](CCN)C(=O)NCCOCCOCC(=O)NCCOCCOCC(=O)NCCOCCOCC(=O)NCCCCCCCCCCCCCCC(=O)O)NC(=O)[C@H](CCC(=O)O)NC(=O)[C@H](C(C)C)NC(=O)[C@H](CC3CCCCC3)NC(=O)[C@H](CCN)NC(=O)[C@@H](CC(C)C)NC(=O)[C@H](C)N(C)C(=O)[C@H](Cc3ccc(C(=O)O)cc3)NC(=O)[C@H](Cc3ccc(-c4ccccc4)cc3)NC(=O)[C@H](Cc3ccc(C(=O)O)cc3)NC2=O)c1 (stereo partly drawn) [Example 2539] ({CH2CO}-[Thr(3ξ)][Phe(4-COOH)]D[Phe(3-Me)][Phe(4-COOH)][Bip][Phe(4-COOH)][NMeA][dL][Dab][Cha]VEC[Dab][AEEA][AEEA][AEEA]-{NH(CH2)14COOH}; thioether N-14)
16.8 nM | CC(=O)NCCCC[C@@H]1NC(=O)[C@H](C(C)(C)O)NC(=O)[C@H](CC2CCCCC2)NC(=O)[C@H](CCN)NC(=O)[C@@H](CC(C)C)NC(=O)[C@H](C)N(C)C(=O)[C@H](CCCNC(=N)N)NC(=O)[C@H](Cc2ccc(-c3ccccc3)cc2)NC(=O)[C@H](Cc2ccc(C(=O)O)cc2)NC(=O)[C@H](Cc2cccc(C(F)(F)F)c2)NC(=O)[C@H](CC(=O)O)NC(=O)[C@H](Cc2ccc(OCC(=O)O)cc2)NC(=O)[C@H](Cc2ccc(OCC(=O)O)cc2)NC(=O)CSC[C@@H](C(=O)N[C@@H](CCN)C(=O)NCCOCCOCC(=O)NCCCCCCCCCCCCC(=O)O)NC1=O [Example 2639] ({CH2CO}-Y(Carboxymethyl)Y(Carboxymethyl)D[Phe(3-CF3)][Phe(4-COOH)][Bip]R[NMeA][dL][Dab][Cha][Val(3-OH)]K(Ac)C[Dab][AEEA]-{NH(CH2)12COOH}; thioether N-14)
9 nM | Cc1cccc(C[C@@H]2NC(=O)[C@H](CC(=O)O)NC(=O)[C@H](Cc3ccc(C(=O)O)cc3)NC(=O)[C@H](Cc3ccncc3)NC(=O)CSC[C@@H](C(=O)N[C@@H](CCN)C(=O)NCCOCCOCC(=O)NCCCCCCCCCCC(=O)O)NC(=O)[C@H](C(C)O)NC(=O)[C@H](C(C)(C)O)NC(=O)[C@H](CC3CCCCC3)NC(=O)[C@H](CCN)NC(=O)[C@@H](CC(C)C)NC(=O)[C@H](C)N(C)C(=O)[C@H](CCC(=O)O)NC(=O)[C@H](Cc3ccc(-c4ccccc4)cc3)NC(=O)[C@H](Cc3ccc(C(N)=O)cc3)NC2=O)c1 (stereo partly drawn) [Example 2540] ({CH2CO}-[4Pal][Phe(4-COOH)]D[Phe(3-Me)][Phe(4-CONH2)][Bip]E[NMeA][dL][Dab][Cha][Val(3-OH)][Thr(3ξ)]C[Dab][AEEA][Aun]-OH; thioether N-14)
12.9 nM | Cc1cccc(C[C@@H]2NC(=O)[C@H](CC(=O)O)NC(=O)[C@H](Cc3ccc(C(=O)O)cc3)NC(=O)[C@H](Cc3ccsc3)NC(=O)CSC[C@@H](C(=O)N[C@@H](CCN)C(=O)NCCOCCOCC(=O)NCCCCCCCCCCC(=O)O)NC(=O)[C@H](CCC(=O)O)NC(=O)[C@H](C(C)(C)O)NC(=O)[C@H](CC3CCCCC3)NC(=O)[C@H](CCN)NC(=O)[C@@H](CC(C)C)NC(=O)[C@H](C)N(C)C(=O)[C@H](Cc3ccc(OCC(=O)O)cc3)NC(=O)[C@H](Cc3ccc(-c4ccccc4)cc3)NC(=O)[C@H](Cc3ccc(OCC(=O)O)cc3)NC2=O)c1 [Example 2505] ({CH2CO}-[3Thi][Phe(4-COOH)]D[Phe(3-Me)]Y(Carboxymethyl)[Bip]Y(Carboxymethyl)[NMeA][dL][Dab][Cha][Val(3-OH)]EC[Dab][AEEA][Aun]-OH; thioether N-14)
